Source: patent US20230049549A1, “PEPTIDE COMPOUNDS AND METHODS OF TREATING DISEASES USING SAME” (Immunity Pharma Ltd., priority 2020, published 2023)
Where no end group is shown, it is not given here. [ ]: non-standard residue; d: D form. dimethylproline = dimethylproline (dMP); Aib = CC(C)(N)C(=O)O

Tested on: BALB/c mice
Experiment: Rescue from dexamethasone-induced spleen and thymus weight and cell loss in mice
Assay type: in vivo, mouse
Settings: for Average: average of spleen weight, spleen cell number, thymus weight, thymus cell number, Normal = 100%, DEXA alone 47%; for Thymus Cell number: relative to Normal mice = 100% (DEXA alone 23%); for Thymus Cell number / Thymus Weight / Spleen Cell number / Spleen Weight: dexamethasone 100 μg IP, peptide 200 μg/mouse IV immediately and 24 hours after, sacrificed 48 hours; for Thymus Weight: relative to Normal mice = 100% (DEXA alone 44%); for Spleen Cell number: relative to Normal mice = 100% (DEXA alone 59%); for Spleen Weight: relative to Normal mice = 100% (DEXA alone 62%)
Description: Dexamethasone is a corticosteroid medication that induces apoptosis of immune cells and lymphomyeloid tissues. BALB/c mice were used to examine the ability of candidate peptides to rescue lymphocyte cells from apoptosis. Mice were injected IP with 100 μg of Dexamethasone. Dexamethasone-treated mice received immediately following and 24-hours after dexamethasone treatment IV injection of candidate peptides (200 μg peptide/mouse). Mice were sacrificed 48 hours after the first treatment. The spleen and the thymus were weighted and full cell count of both organs was performed.
Peptides used in the screen were SEQ ID NOs: 1-13. The peptide of SEQ ID NO: 42 was used as a positive control. The peptides set forth in SEQ ID NOs: 35-41 were used as negative controls.

Substance	Average [%]	Thymus Cell number [%]	Thymus Weight [%]	Spleen Cell number [%]	Spleen Weight [%]
11 ([dL]PPHPYP) [compound 11]	68	49	52	91	81
10 (LPPHPYP) [compound 10]	65	33	56	85	84
5 ([dL]PPH[Aib]Y-NH2; N-terminus assumed; SMILES CC(C)C[C@@H](N)C(=O)N1CCC[C@H]1C(=O)N1CCC[C@H]1C(=O)N[C@@H](Cc1c[nH]cn1)C(=O)NC(C)(C)C(=O)N[C@@H](Cc1ccc(O)cc1)C(N)=O) [compound 5]	68	49	52	91	81
1 (LPPL[Aib]YP) [compound 1]	65	28	59	82	89
36 ([dL]PPH[Aib]YP) [compound 36]	54	40	43	69	64
41 ([dL]PPLAY[Aib]) [compound 41]	51	25	49	61	69
12 ([dL]P[Aib]LAYP) [compound 12]	72	51	63	85	89
13 (LP[dimethylproline]LPYP) [compound 13]	65	44	49	84	82
39 ([dL]PPL[Aib]Y) [compound 39]	55	27	50	73	69
7 (L[dimethylproline]PLPYP) [compound 7]	67	29	72	82	84
40 ([dL]PPLAY) [compound 40]	55	34	41	72	72
38 ([dL]PPL[Aib]YP) [compound 38]	52	24	50	66	67
8 (LPPVPYP) [compound 8]	60	30	53	82	76
4 ([dP]PL[Aib]Y-NH2; N-terminus assumed; SMILES CC(C)C[C@H](NC(=O)[C@@H]1CCCN1C(=O)[C@H]1CCCN1)C(=O)NC(C)(C)C(=O)N[C@@H](Cc1ccc(O)cc1)C(N)=O) [compound 4]	61	31	55	82	77
35 (LPPH[Aib]YP) [compound 35]	52	39	42	65	62
6 (LPP[dL]PYP) [compound 6]	58	23	48	80	80
9 (LPPSPYP) [compound 9]	61	31	55	82	76
2 (LPPLPY[Aib]) [compound 2]	65	25	61	85	89
42 (LPPLPYP) [compound 42]	59	34	47	78	79
37 (Ac-PPL[Aib]Y-NH2; SMILES CC(=O)N1CCC[C@H]1C(=O)N1CCC[C@H]1C(=O)N[C@@H](CC(C)C)C(=O)NC(C)(C)C(=O)N[C@@H](Cc1ccc(O)cc1)C(N)=O) [compound 37]	55	24	48	77	69
